{
  "source": "paper PMC6268944",
  "experiment": "amide bond formation (head-to-tail lactamisation): terminal amine + amino acid COOH, EDC.HCl 2.2 equiv, DMAP 0.2 equiv, substrate (HCl salt) and reagent solutions each added dropwise over 1 h",
  "details": "14-membered ring, CH2Cl2, 4.0 mM, 2 steps",
  "data": [
    {"smiles": "CCN1CCN(CC)C(=O)[C@H](CC(C)C)NC(=O)[C@H](C)NC(=O)c2nc[nH]c2C1=O", "note": "[H-Leu-[N(Et)CH2CH2N(Et)]-CO-(imidazole-4,5-diyl)-CO-Ala-OH]", "values": [
      {"measurement": "ring closure, yield over several steps", "setting": "from CCN(CCN(CC)C(=O)[C@@H](N)CC(C)C)C(=O)c1[nH]cnc1C(=O)N[C@@H](C)C(=O)O, 14.0 h", "value": 11, "unit": "%"}
    ]},
    {"smiles": "CN1CCN(C)C(=O)c2[nH]cnc2C(=O)NCC(=O)NCC1=O", "note": "[H-Gly-[N(Me)CH2CH2N(Me)]-CO-(imidazole-4,5-diyl)-CO-Gly-OH]", "values": [
      {"measurement": "ring closure, yield over several steps", "setting": "from CN(CCN(C)C(=O)c1[nH]cnc1C(=O)NCC(=O)O)C(=O)CN, 10.5 h", "value": 7, "unit": "%"}
    ]},
    {"smiles": "CC(C)C[C@@H]1NC(=O)c2nc[nH]c2C(=O)N(C)CCN(C)C(=O)[C@H](C)NC1=O", "note": "[H-Ala-[N(Me)CH2CH2N(Me)]-CO-(imidazole-4,5-diyl)-CO-Leu-OH]", "values": [
      {"measurement": "ring closure, yield over several steps", "setting": "from CC(C)C[C@H](NC(=O)c1nc[nH]c1C(=O)N(C)CCN(C)C(=O)[C@H](C)N)C(=O)O, 14.0 h", "value": 12, "unit": "%"}
    ]},
    {"smiles": "CCN1CCN(CC)C(=O)[C@H](C)NC(=O)CNC(=O)c2nc[nH]c2C1=O", "note": "[H-Ala-[N(Et)CH2CH2N(Et)]-CO-(imidazole-4,5-diyl)-CO-Gly-OH]", "values": [
      {"measurement": "ring closure, yield over several steps", "setting": "from CCN(CCN(CC)C(=O)[C@H](C)N)C(=O)c1[nH]cnc1C(=O)NCC(=O)O, 14.0 h", "value": 0, "unit": "%"}
    ]},
    {"smiles": "C[C@@H]1NC(=O)CNC(=O)c2nc[nH]c2C(=O)N(C)CCN(C)C1=O", "note": "[H-Ala-[N(Me)CH2CH2N(Me)]-CO-(imidazole-4,5-diyl)-CO-Gly-OH]", "values": [
      {"measurement": "ring closure, yield over several steps", "setting": "from C[C@H](N)C(=O)N(C)CCN(C)C(=O)c1[nH]cnc1C(=O)NCC(=O)O, 14.0 h", "value": 0, "unit": "%"}
    ]},
    {"smiles": "CCN1CCN(CC)C(=O)[C@H](C)NC(=O)[C@@H](C)NC(=O)c2nc[nH]c2C1=O", "note": "[H-Ala-[N(Et)CH2CH2N(Et)]-CO-(imidazole-4,5-diyl)-CO-D-Ala-OH]", "values": [
      {"measurement": "ring closure, yield over several steps", "setting": "from CCN(CCN(CC)C(=O)[C@H](C)N)C(=O)c1[nH]cnc1C(=O)N[C@H](C)C(=O)O, 14.0 h", "value": 8, "unit": "%"}
    ]},
    {"smiles": "C[C@@H]1NC(=O)c2nc[nH]c2C(=O)N(C)CCN(C)C(=O)[C@@H](C)NC1=O", "note": "[H-D-Ala-[N(Me)CH2CH2N(Me)]-CO-(imidazole-4,5-diyl)-CO-Ala-OH]", "values": [
      {"measurement": "ring closure, yield over several steps", "setting": "from C[C@H](NC(=O)c1nc[nH]c1C(=O)N(C)CCN(C)C(=O)[C@@H](C)N)C(=O)O, 14.0 h", "value": 22, "unit": "%"}
    ]},
    {"smiles": "C[C@H]1NC(=O)c2nc[nH]c2C(=O)N(C)CCN(C)C(=O)[C@@H](C)NC1=O", "values": [
      {"measurement": "ring closure, yield over several steps", "setting": "from C[C@@H](N)C(=O)N(C)CCN(C)C(=O)c1[nH]cnc1C(=O)N[C@H](C)C(=O)O, 14.0 h", "value": 0, "unit": "%"}
    ]},
    {"smiles": "CC(C)C[C@@H]1NC(=O)[C@@H](C)NC(=O)c2nc[nH]c2C(=O)N(C)CCN(C)C1=O", "note": "[H-Leu-[N(Me)CH2CH2N(Me)]-CO-(imidazole-4,5-diyl)-CO-D-Ala-OH]", "values": [
      {"measurement": "ring closure, yield over several steps", "setting": "from CC(C)C[C@H](N)C(=O)N(C)CCN(C)C(=O)c1[nH]cnc1C(=O)N[C@H](C)C(=O)O, 14.0 h", "value": 37, "unit": "%"}
    ]},
    {"smiles": "CC(C)C[C@@H]1NC(=O)CNC(=O)c2nc[nH]c2C(=O)N(C)CCN(C)C1=O", "note": "[H-Leu-[N(Me)CH2CH2N(Me)]-CO-(imidazole-4,5-diyl)-CO-Gly-OH]", "values": [
      {"measurement": "ring closure, yield over several steps", "setting": "from CC(C)C[C@H](N)C(=O)N(C)CCN(C)C(=O)c1[nH]cnc1C(=O)NCC(=O)O, 14.0 h", "value": 0, "unit": "%"}
    ]},
    {"smiles": "CC(C)C[C@@H]1NC(=O)c2nc[nH]c2C(=O)N(C)CCN(C)C(=O)CNC1=O", "note": "[H-Gly-[N(Me)CH2CH2N(Me)]-CO-(imidazole-4,5-diyl)-CO-Leu-OH]", "values": [
      {"measurement": "ring closure, yield over several steps", "setting": "from CC(C)C[C@H](NC(=O)c1nc[nH]c1C(=O)N(C)CCN(C)C(=O)CN)C(=O)O, 17.5 h", "value": 37, "unit": "%"}
    ]},
    {"smiles": "C[C@@H]1NC(=O)c2nc[nH]c2C(=O)N(C)CCN(C)C(=O)CNC1=O", "note": "[H-Gly-[N(Me)CH2CH2N(Me)]-CO-(imidazole-4,5-diyl)-CO-Ala-OH]", "values": [
      {"measurement": "ring closure, yield over several steps", "setting": "from C[C@H](NC(=O)c1nc[nH]c1C(=O)N(C)CCN(C)C(=O)CN)C(=O)O, 21.0 h", "value": 7, "unit": "%"}
    ]},
    {"smiles": "CCN1CCN(CC)C(=O)c2[nH]cnc2C(=O)NCC(=O)NCC1=O", "note": "[H-Gly-[N(Et)CH2CH2N(Et)]-CO-(imidazole-4,5-diyl)-CO-Gly-OH]", "values": [
      {"measurement": "ring closure, yield over several steps", "setting": "from CCN(CCN(CC)C(=O)c1[nH]cnc1C(=O)NCC(=O)O)C(=O)CN, 14.0 h", "value": 0, "unit": "%"}
    ]},
    {"smiles": "C[C@H]1NC(=O)CNC(=O)c2nc[nH]c2C(=O)N(C)CCN(C)C1=O", "note": "[H-D-Ala-[N(Me)CH2CH2N(Me)]-CO-(imidazole-4,5-diyl)-CO-Gly-OH]", "values": [
      {"measurement": "ring closure, yield over several steps", "setting": "from C[C@@H](N)C(=O)N(C)CCN(C)C(=O)c1[nH]cnc1C(=O)NCC(=O)O, 14.0 h", "value": 0, "unit": "%"}
    ]},
    {"smiles": "CCN1CCN(CC)C(=O)[C@H](CC(C)C)NC(=O)CNC(=O)c2nc[nH]c2C1=O", "note": "[H-Leu-[N(Et)CH2CH2N(Et)]-CO-(imidazole-4,5-diyl)-CO-Gly-OH]", "values": [
      {"measurement": "ring closure, yield over several steps", "setting": "from CCN(CCN(CC)C(=O)[C@@H](N)CC(C)C)C(=O)c1[nH]cnc1C(=O)NCC(=O)O, 14.0 h", "value": 8, "unit": "%"}
    ]},
    {"smiles": "CCN1CCN(CC)C(=O)c2[nH]cnc2C(=O)N[C@@H](C)C(=O)NCC1=O", "note": "[H-Gly-[N(Et)CH2CH2N(Et)]-CO-(imidazole-4,5-diyl)-CO-Ala-OH]", "values": [
      {"measurement": "ring closure, yield over several steps", "setting": "from CCN(CCN(CC)C(=O)c1[nH]cnc1C(=O)N[C@@H](C)C(=O)O)C(=O)CN, 14.0 h", "value": 9, "unit": "%"}
    ]},
    {"smiles": "CCN1CCN(CC)C(=O)[C@H](CC(C)C)NC(=O)[C@@H](C)NC(=O)c2nc[nH]c2C1=O", "note": "[H-Leu-[N(Et)CH2CH2N(Et)]-CO-(imidazole-4,5-diyl)-CO-D-Ala-OH]", "values": [
      {"measurement": "ring closure, yield over several steps", "setting": "from CCN(CCN(CC)C(=O)[C@@H](N)CC(C)C)C(=O)c1[nH]cnc1C(=O)N[C@H](C)C(=O)O, 14.0 h", "value": 0, "unit": "%"}
    ]},
    {"smiles": "CC(C)C[C@@H]1NC(=O)[C@H](C)NC(=O)c2nc[nH]c2C(=O)N(C)CCN(C)C1=O", "note": "[H-Leu-[N(Me)CH2CH2N(Me)]-CO-(imidazole-4,5-diyl)-CO-Ala-OH]", "values": [
      {"measurement": "ring closure, yield over several steps", "setting": "from CC(C)C[C@H](N)C(=O)N(C)CCN(C)C(=O)c1[nH]cnc1C(=O)N[C@@H](C)C(=O)O, 14.0 h", "value": 14, "unit": "%"}
    ]},
    {"smiles": "CCN1CCN(CC)C(=O)[C@H](C)NC(=O)[C@H](C)NC(=O)c2nc[nH]c2C1=O", "note": "[H-Ala-[N(Et)CH2CH2N(Et)]-CO-(imidazole-4,5-diyl)-CO-Ala-OH]", "values": [
      {"measurement": "ring closure, yield over several steps", "setting": "from CCN(CCN(CC)C(=O)[C@H](C)N)C(=O)c1[nH]cnc1C(=O)N[C@@H](C)C(=O)O, 14.0 h", "value": 7, "unit": "%"}
    ]},
    {"smiles": "CCN1CCN(CC)C(=O)[C@@H](C)NC(=O)[C@@H](C)NC(=O)c2nc[nH]c2C1=O", "values": [
      {"measurement": "ring closure, yield over several steps", "setting": "from CCN(CCN(CC)C(=O)[C@@H](C)N)C(=O)c1[nH]cnc1C(=O)N[C@H](C)C(=O)O, 14.0 h", "value": 9, "unit": "%"}
    ]},
    {"smiles": "C[C@H]1NC(=O)c2nc[nH]c2C(=O)N(C)CCN(C)C(=O)CNC1=O", "note": "[H-Gly-[N(Me)CH2CH2N(Me)]-CO-(imidazole-4,5-diyl)-CO-D-Ala-OH]", "values": [
      {"measurement": "ring closure, yield over several steps", "setting": "from C[C@@H](NC(=O)c1nc[nH]c1C(=O)N(C)CCN(C)C(=O)CN)C(=O)O, 18.0 h", "value": 17, "unit": "%"}
    ]},
    {"smiles": "CCN1CCN(CC)C(=O)[C@@H](C)NC(=O)[C@H](C)NC(=O)c2nc[nH]c2C1=O", "note": "[H-D-Ala-[N(Et)CH2CH2N(Et)]-CO-(imidazole-4,5-diyl)-CO-Ala-OH]", "values": [
      {"measurement": "ring closure, yield over several steps", "setting": "from CCN(CCN(CC)C(=O)[C@@H](C)N)C(=O)c1[nH]cnc1C(=O)N[C@@H](C)C(=O)O, 14.0 h", "value": 10, "unit": "%"}
    ]},
    {"smiles": "CCN1CCN(CC)C(=O)[C@@H](C)NC(=O)CNC(=O)c2nc[nH]c2C1=O", "note": "[H-D-Ala-[N(Et)CH2CH2N(Et)]-CO-(imidazole-4,5-diyl)-CO-Gly-OH]", "values": [
      {"measurement": "ring closure, yield over several steps", "setting": "from CCN(CCN(CC)C(=O)[C@@H](C)N)C(=O)c1[nH]cnc1C(=O)NCC(=O)O, 14.0 h", "value": 3, "unit": "%"}
    ]},
    {"smiles": "C[C@@H]1NC(=O)c2nc[nH]c2C(=O)N(C)CCN(C)C(=O)[C@H](C)NC1=O", "note": "[H-Ala-[N(Me)CH2CH2N(Me)]-CO-(imidazole-4,5-diyl)-CO-Ala-OH]", "values": [
      {"measurement": "ring closure, yield over several steps", "setting": "from C[C@H](N)C(=O)N(C)CCN(C)C(=O)c1[nH]cnc1C(=O)N[C@@H](C)C(=O)O, 14.0 h", "value": 32, "unit": "%"}
    ]},
    {"smiles": "CC(C)C[C@@H]1NC(=O)c2nc[nH]c2C(=O)N(C)CCN(C)C(=O)[C@@H](C)NC1=O", "note": "[H-D-Ala-[N(Me)CH2CH2N(Me)]-CO-(imidazole-4,5-diyl)-CO-Leu-OH]", "values": [
      {"measurement": "ring closure, yield over several steps", "setting": "from CC(C)C[C@H](NC(=O)c1nc[nH]c1C(=O)N(C)CCN(C)C(=O)[C@@H](C)N)C(=O)O, 14.0 h", "value": 11, "unit": "%"}
    ]},
    {"smiles": "CCN1CCN(CC)C(=O)c2[nH]cnc2C(=O)N[C@H](C)C(=O)NCC1=O", "note": "[H-Gly-[N(Et)CH2CH2N(Et)]-CO-(imidazole-4,5-diyl)-CO-D-Ala-OH]", "values": [
      {"measurement": "ring closure, yield over several steps", "setting": "from CCN(CCN(CC)C(=O)c1[nH]cnc1C(=O)N[C@H](C)C(=O)O)C(=O)CN, 14.0 h", "value": 8, "unit": "%"}
    ]},
    {"smiles": "CCN1CCN(CC)C(=O)[C@H](CC(C)C)NC(=O)[C@H](CC(C)C)NC(=O)c2nc[nH]c2C1=O", "note": "[H-Leu-[N(Et)CH2CH2N(Et)]-CO-(imidazole-4,5-diyl)-CO-Leu-OH]", "values": [
      {"measurement": "ring closure, yield over several steps", "setting": "from CCN(CCN(CC)C(=O)[C@@H](N)CC(C)C)C(=O)c1[nH]cnc1C(=O)N[C@@H](CC(C)C)C(=O)O, 14.0 h", "value": 0, "unit": "%"}
    ]},
    {"smiles": "C[C@@H]1NC(=O)[C@@H](C)NC(=O)c2nc[nH]c2C(=O)N(C)CCN(C)C1=O", "note": "[H-Ala-[N(Me)CH2CH2N(Me)]-CO-(imidazole-4,5-diyl)-CO-D-Ala-OH]", "values": [
      {"measurement": "ring closure, yield over several steps", "setting": "from C[C@H](N)C(=O)N(C)CCN(C)C(=O)c1[nH]cnc1C(=O)N[C@H](C)C(=O)O, 14.0 h", "value": 0, "unit": "%"}
    ]}
  ]
}
